Experiment in all cases: NCI-60 cell line screen, 48 h
The test system of experiment [1] is MDA-MB-231 breast.
For experiment [2], the system named is HCT-15 colon.
Experiment [3] concerns EKVX NSCLC.
The subject of experiment [4] is UACC-257 melanoma.
The test system of experiment [5] is TK-10 renal.
Experiment [6] deals with OVCAR-3 ovarian.
Experiment [7] relates to NCI-H23 lung.
The test system of experiment [8] is SR leukemia.
Experiment [9] relates to SF-268 CNS.
Experiment [10] has as its system SF-539 CNS.
Experiment [11] relates to K-562 leukemia.
Experiment [12] deals with NCI-H226 lung.
Experiment [13] concerns SK-MEL-5 melanoma.
Experiment [14] concerns M14 melanoma.
The subject of experiment [15] is A549 NSCLC.
In experiment [16] the test system is A498 renal.
The test system of experiment [17] is LOX IMVI melanoma.
In experiment [18] the test system is COLO 205 colon.
For experiment [19], the system named is UACC-62 melanoma.

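1) Cells in 96-well plates. 2) Compound, 48 h, 5 concentrations. 3) Linear interpolation between surrounding doses. 4) Unreached endpoint = highest concentration. The concentration for full growth arrest is given as TGI.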 Where only a bound is given, the exact number is not on record here.

With `c1cc(-c2ccc(-c3nc4ccc(C5=NCCN5)cc4s3)s2)ccc1C1=NCCN1`, the TGI in experiment [1] is 1.49 µM; in experiment [2], 16.6 µM; in [3] it was 2.69 µM; in experiment [4] it was greater than 100 µM; in experiment [5] it was 2.42 µM; in experiment [6], 5.25 µM. Besides, the TGI was greater than 100 µM in [7]; 1.43 µM in experiment [8]; 0.662 µM in experiment [9]; 0.319 µM in experiment [10]; 4 µM in experiment [11].

`c1ccc2c(c1)nn1c3ccc4nonc4c3[n-][n+]21`: the TGI in experiment [12], in experiment [1], in experiment [2], in [13], in [3] and in experiment [4] was greater than 100 µM each time. Moreover, the TGI in experiment [14], in experiment [6], in experiment [7], in experiment [15], in [16] and in [8] was greater than 100 µM each time. In addition, the TGI in [10], in experiment [17], in [18], in experiment [11] and in experiment [19] was greater than 100 µM each time.

Consider `CCCCN(CCCC)CCC(O)c1cc(-c2ccc(C(F)(F)F)cc2)nc(-c2ccc(C(F)(F)F)cc2)c1` (stereo not drawn), for which the TGI in experiment [1], in [2], in experiment [3], in experiment [4], in experiment [14] and in [5] was greater than 100 µM each time. Also, the TGI in experiment [6], in [7], in experiment [16], in experiment [8], in [9] and in experiment [10] was greater than 100 µM throughout. Also, the TGI in experiment [17], in experiment [18], in experiment [11] and in experiment [19] was greater than 100 µM throughout.

For `N#C/C(c1nc2ccccc2[nH]1)=c1\s/c(=C(/N)O)c(=N)n1-c1ccccc1`, the TGI in experiment [12], in experiment [2], in experiment [13], in experiment [3], in experiment [4] and in [14] was greater than 100 µM throughout. The TGI in experiment [5], in [6], in [7], in [15], in experiment [16] and in experiment [9] was greater than 100 µM each time. Further, the TGI in experiment [10], in experiment [17], in [18], in [11] and in experiment [19] was greater than 100 µM each time.

For the compound `[N-]=[N+]=NC1(c2ccccc2)C(=O)C(Cl)=C(c2ccccc2)N(c2ccccc2)C1=O` (stereo not drawn), the TGI in experiment [2], in experiment [13], in experiment [3], in experiment [4], in [14] and in [5] was greater than 100 µM in each case. In addition, the TGI in experiment [6], in experiment [7], in [15], in [16], in [8] and in [9] was greater than 100 µM each time. In addition, the TGI in experiment [10], in experiment [17], in experiment [18], in experiment [11] and in [19] was greater than 100 µM in each case.

For `Cc1ccc(/C=C/C(=N/NC(=O)N/N=C(/C=C/c2ccc(C)cc2)C(C)C)C(C)C)cc1`, the TGI in [12], in experiment [1], in [2], in experiment [3], in [4] and in experiment [14] was greater than 10 µM in each case. The TGI in [5], in experiment [6], in [7], in experiment [15], in experiment [8] and in experiment [9] was greater than 10 µM throughout. Moreover, the TGI in [18] and in [11] was greater than 10 µM each time.

In the case of `CN(C)C1(N(C)C)Oc2c(c(=O)n(C)c(=O)n2C)C(c2ccc(C(F)(F)F)cc2)C1(F)F` (stereo not drawn), the TGI in experiment [12], in experiment [1], in experiment [2], in experiment [13], in [3] and in [4] was greater than 100 µM each time. Moreover, the TGI in experiment [14], in [5], in experiment [6], in [7], in experiment [15] and in [16] was greater than 100 µM in each case. Moreover, the TGI in experiment [9], in experiment [17], in experiment [18], in [11] and in [19] was greater than 100 µM throughout.

For `C=C1[C@H]2O[C@H]2[C@@H](OC(C)=O)[C@@]2(C)[C@@H](OC(C)=O)C[C@@H](OC(=O)CCC)[C@@](C)(O)[C@@H]2[C@@H](OC(C)=O)[C@]2(O)[C@@H](C)C(=O)O[C@H]2[C@H]1Cl`, the TGI in [12] is 0.818 µM; in [1], greater than 100 µM; in experiment [2], greater than 100 µM; in experiment [13] it was greater than 100 µM; in [3] it was greater than 100 µM; in experiment [4], greater than 100 µM. The TGI in [14], in experiment [5], in experiment [6], in [7], in experiment [15] and in experiment [16] was greater than 100 µM each time. Also, the TGI in experiment [9], in [10], in [18], in experiment [11] and in experiment [19] was greater than 100 µM each time.

For `O=C(c1ccco1)N(C(=S)N1CCN(c2ccccc2)CC1)C1CCCCC1`, the TGI in [2], in experiment [13], in experiment [4], in experiment [14], in experiment [5] and in experiment [6] was greater than 100 µM in each case. The TGI in experiment [7], in [15], in [8], in [9], in [10] and in experiment [17] was greater than 100 µM in each case. For the same compound, the TGI in experiment [18], in experiment [11] and in experiment [19] was greater than 100 µM in each case.

Turning to `COCCOC(=O)NCn1cc(-c2ccccc2)nn1`, the TGI in experiment [12], in experiment [1], in experiment [2], in experiment [13], in experiment [3] and in [4] was greater than 100 µM in each case. Besides, the TGI in experiment [14], in [5], in experiment [7], in experiment [15], in [8] and in experiment [10] was greater than 100 µM throughout. The TGI in experiment [17], in experiment [18] and in experiment [11] was greater than 100 µM throughout.

In the case of `COc1cc2c(oc(=O)c3c4occc4cc(OC)c23)c2cccc(OCc3ccccc3)c12`, the TGI in experiment [12], in experiment [2], in [13], in experiment [3], in [4] and in [14] was greater than 100 µM each time. Besides, the TGI is greater than 100 µM in experiment [5]; greater than 100 µM in experiment [6]; greater than 100 µM in experiment [7]; greater than 100 µM in experiment [15]; 83.4 µM in [16]; greater than 100 µM in experiment [8]. Also, the TGI in experiment [9], in experiment [10], in [17], in experiment [18], in [11] and in experiment [19] was greater than 100 µM in each case.

With `COc1cc2c(cc1OC)C1c3ccccc3CCN1CCC2` (stereo not drawn), the TGI in experiment [12], in experiment [1], in experiment [2], in experiment [13], in experiment [3] and in experiment [4] was greater than 100 µM in each case. Besides, the TGI in experiment [14], in [5], in [6], in experiment [15], in experiment [8] and in experiment [9] was greater than 100 µM each time. The TGI in experiment [10], in experiment [17], in experiment [18], in experiment [11] and in [19] was greater than 100 µM in each case.

With `CC(=O)Nc1ccc2c3c(cc(O)c2c1)N(C(=O)CCCCC(=O)N1CC(CCl)c2c1cc(O)c1cc(NC(C)=O)ccc21)CC3CCl` (stereo not drawn), the TGI in [12] was 0.763 µM; in experiment [1], 0.733 µM; in experiment [2], greater than 70.6 µM; in experiment [13], 0.391 µM; in experiment [3], 12.8 µM; in experiment [14], 1.16 µM. Further, the TGI in [5] was 11.9 µM; in experiment [7] it was 0.744 µM; in experiment [16], 0.39 µM; in [8], 0.0278 µM; in [9] it was 2.77 µM; in [10], 1.34 µM. Moreover, the TGI in experiment [17] was greater than 100 µM; in [18] it was 0.376 µM; in [11] it was greater than 100 µM; in [19] it was 0.22 µM.

On to `O=C(c1cccc2ccccc12)C1S(=O)(=O)OCCOS1(=O)=O`, for which the TGI in [1], in experiment [2], in [13], in [3], in [14] and in experiment [5] was greater than 100 µM in each case. For the same compound, the TGI in [6], in experiment [7], in experiment [15], in [8], in experiment [18] and in experiment [11] was greater than 100 µM throughout.

For the compound `COc1ccc2c(c1)CC1COc3cc(OC)ccc3C1O2` (stereo not drawn), the TGI in experiment [12], in [1], in [2], in experiment [13], in [3] and in [4] was greater than 100 µM each time. In addition, the TGI in experiment [14], in experiment [5], in experiment [6], in experiment [7], in experiment [15] and in experiment [16] was greater than 100 µM in each case. Also, the TGI in experiment [8], in experiment [9], in experiment [10], in [17], in experiment [18] and in [19] was greater than 100 µM in each case.

Regarding `CCOC(=O)C(C)Sc1nnc(COc2ccc(Cl)cc2)n1-c1ccccc1` (stereo not drawn), the TGI in [12] came to 46.9 µM; in experiment [2], 27.8 µM; in [13] it was 35.8 µM; in experiment [3], 83.5 µM; in [4] it was 47.3 µM; in experiment [14], 30.9 µM. Besides, the TGI in experiment [5] is 69.9 µM; in [6] it was 33.5 µM; in experiment [7], 42.7 µM; in experiment [15], greater than 100 µM; in experiment [9], 34.7 µM; in experiment [10] it was 36.9 µM. The TGI in [17] was found to be 27.4 µM; in experiment [18] it was 33.2 µM; in experiment [11] it was 49.9 µM; in experiment [19] it was 31.8 µM.

The values are drawn from PubChem BioAssay (NCI).
